Experimental data published in article PMC7180939, “Antiplasmodial Activity of p-Substituted Benzyl Thiazinoquinone Derivatives and Their Potential against Parasitic Infections” (Molecules, 2020).
Like-named read-outs stand apart in the source and are kept apart here.

Columns and labels:
[1] = test system: chloroquine-sensitive (D10) strain of P. falciparum; test: P. falciparum drug susceptibility assay (pLDH), D10 strain; type: cell-based; details: Plasmodium falciparum, read-out: D10 IC50
Protocol: (§1) All reagents were from Sigma Aldrich, Milan, Italy unless indicated otherwise. As reported in the literature, the chloroquine-sensitive (D10) and chloroquine-resistant (W2) strains of P. falciparum were maintained in vitro at 5% hematocrit medium (constituted of human type Apositive red blood cells) in RPMI 1640 (EuroClone, Celbio, Italy) with the addition of 1% AlbuMax (Invitrogen, Milan, Italy), 0.01% hypoxanthine, […], and […]. The resulting cultures were incubated at 37 °C in a mixture of standard gas with the following composition: 1% O2, 5% CO2, and 94% N2. […] Drugs were placed in 96 well flat-bottom microplates and a series of dilutions performed. Asynchronous cultures (parasitemia of 1–1.5%; 1% final hematocrit) were aliquoted into the plates and incubated for 72 h at 37 °C. The cultures were washed with PBS before the chemosensitivity assay while the parasite growth was determined spectrophotometrically (OD650) by measuring the parasite lactate dehydrogenase (pLDH) activity. These measurements were made according to the modified version of Makler’s method both in control and drug-tested cultures. Antiplasmodial activity is expressed as 50% inhibitory concentrations (IC50), which means the dose of compounds necessary to inhibit cell growth by 50%. Each IC50 value is the mean standard deviation of at least three separate experiments performed in duplicate.

[2] = test system: chloroquine-resistant (W2) strain of P. falciparum; test: P. falciparum drug susceptibility assay (pLDH), W2 strain; type: cell-based; details: Plasmodium falciparum, read-out: W2 IC50
Protocol: as §1

[3] = test system: human microvascular endothelial cells (HMEC-1); test: Cytotoxicity assay on HMEC-1 cell line; type: cell-based; details: cytotoxicity on HMEC-1 cell line
[4] = test system: embryonic murine fibroblasts (NIH-3T3 cell line); design: method as in PMID 31718145; details: cytotoxicity on NIH-3T3 cell line; cited from earlier work
P. falciparum = test system: P. falciparum; design: method as in PMID 30640072; details: D10 and W2 strains, earlier work; cited from earlier work
S. mansoni = test system: S. mansoni; design: method as in PMID 31718145; details: schistosomula, adult worm pairs, juvenile parasites, eggs; cited from earlier work
[5] = design: method as in PMID 31718145; details: cited from earlier work
[6] = CQ-sensitive D10 strain, pLDH assay, 72 h, mean ± SD of three experiments in duplicate
[7] = CQ-resistant W2 strain, pLDH assay, 72 h, mean ± SD of three experiments in duplicate

| IC50 [1, 6] [nM] | IC50 [2, 7] [nM] | Compound | IC50 [3] [nM] | further results |
| --- | --- | --- | --- | --- |
| 1630 ± 350 | 1900 ± 1050 | COC1=C(Cc2ccc(Cl)cc2)C(=O)C2=C(NCCS2(=O)=O)C1=O [Compound 24] | 8510 ± 760 |  |
| 5060 ± 1680 | 5020 ± 1810 | COC1=C(Cc2ccc(C(F)(F)F)cc2)C(=O)C2=C(NCCS2(=O)=O)C1=O [Compound 25] | 20400 ± 1600 |  |
| 1210 ± 200 | 1220 ± 240 | COC1=C(Cc2ccc(OC)cc2)C(=O)C2=C(NCCS2(=O)=O)C1=O [Compound 26] | 17900 ± 1100 | cLogD [5]: 0.33; IC50 [4]: > 100000 nM |
| 1120 ± 400 | 810 ± 190 | COC1=C(Cc2ccc(OC(F)(F)F)cc2)C(=O)C2=C(NCCS2(=O)=O)C1=O [Compound 27] | 3590 ± 720 | cLogD [5]: 1.37 |

Second part, the compound before the results:

| Compound | IC50 [1, 6] [nM] | IC50 [2, 7] [nM] | IC50 [3] [nM] | further results |
| --- | --- | --- | --- | --- |
| CCN(CC)CCCC(C)Nc1ccnc2cc(Cl)ccc12 (stereo not shown) [CQ, chloroquine, reference compound] |  |  |  | IC50 ([1]; D10, 72 h): 40 nM; IC50 ([2]; W2, 72 h): 540 nM |
| CC[C@@]1(O)C(=O)OCc2c1cc1n(c2=O)Cc2cc3ccccc3nc2-1 [Camptothecin, reference compound] |  |  | 18 |  |
| COC1=C(Cc2ccccc2)C(=O)C2=C(NCCS2(=O)=O)C1=O [Compound 22] | 600 ± 210 | 700 ± 220 | 17600 ± 1400 | IC50 [4]: 88600 ± 7700 nM; antiplasmodial activity (in words) (P. falciparum): active in the range of low-micromolar concentrations |
| COC1=C(Cc2ccccc2)C(=O)C=CC1=O [Compound 23] |  |  |  | activity against S. mansoni (in words) (S. mansoni): inactive; antiplasmodial activity (in words) (P. falciparum): absence of activity |
